Where two headings read alike, the source gives them in different places.
Assays:
[1] = system: Meloidogyne incognita eggs; assay: M. incognita egg immersion assay (hatch and mobility of hatched J2); format: in vivo; settings: for effect on mobility of J2 hatched from eggs immersed in solutions (in words): in vivo
Protocol: (§1) Two types of assays were used to investigate activity against M. incognita: i) eggs were immersed in solutions of the test compounds, and ii) second-stage juveniles (J2) previously hatched from eggs were immersed in the test solutions. These assays were conducted with procedures similar to those in Meyer, et al. (J. Nematol. 2006, 38, 333). M. incognita race 1 (originally isolated in 2013 from a field in Maryland) was grown in the greenhouse on pepper (Capsicum annuum L.) cultivar PA-136. Egg masses were hand-picked from plant roots, rinsed three times with sterile distilled H2O, and agitated in 0.6% NaClO for 3.5 minutes to separate and surface-sterilize eggs. The eggs were rinsed in sterile distilled H2O and stored overnight at 4° C. before use in egg immersion assays. To collect J2 for direct immersion into the test compounds, sterilized eggs were placed into a hatching chamber made with a Spectra/Mesh Nylon Filter (openings 25 μm in diameter; Spectrum Laboratories Inc., Rancho Dominguez, Calif., USA) in an autoclaved dish. J2 that passed through the filter within 3 days were used immediately for assays.
(§2) The assays were conducted in 96-well polystyrene plates. For the assays with immersed eggs, each well received approximately 50 eggs in 35 μl of sterile deionized water (SDW). For assays with previously hatched J2, a suspension of approximately 50 J2 in 35 μl of SDW was placed into each well. Each well then received 165 μl of treatment or control. The solvent used to dissolve the test chemicals was a 1:1:1 mixture referred to herein as CTD: equal parts Cremophor® EL Castor Oil (BASF Corporation, Vandalia, Ill., USA), Tween 80® (Sigma-Aldrich, St. Louis, Mo., USA), and DMSO (Sigma-Aldrich). A high and low rate of each compound was tested. After addition to the nematode suspensions in the wells, the low and high rates were 83.3 and 166.7 μg/ml of each test compound, respectively, dissolved in 0.5% and 1.0% of each of the three combined solvents. Controls were CTD equivalent to the low and high rates, and SDW. Because of the large number of treatments, the test compounds were divided into two groups for the egg immersion assays. The compounds tested in the egg immersion Assay 1 were 3, 6a, 6e, 6f, 6g, 6n, 7a, 7c, 7e, 7f, 7n, 11, 12, 16, and 17. The compounds tested in the egg immersion Assay 2 were 6b, 6h, 6i, 6j, 6k, 6l , 7b, 7g, 7h, 7i, 7j, 7k, 7l, and 7m (data not shown). Test compounds used for assays with previously hatched J2 were selected based on results with the egg assays. The five compounds tested were 6b, 6f, 6g, 6i, and 7k, high and low rates.
Each polystyrene culture plate was covered with a plastic adhesive sheet (Excel Scientific, Inc., Victorville, Calif., USA) and incubated at 25° C. Ten wells (water controls) or five wells (all other treatments) were used per treatment in each assay. In egg immersion assays, total numbers of hatched J2, and numbers of mobile and immobile J2, were counted after 2 and 7 days incubation in the test compounds. In the first assay with previously hatched J2, the numbers of mobile and immobile J2 were counted after 1 and 2 days incubation, the treatments removed and replaced with a SDW rinse, and 2 days later the mobile vs. immobile J2 counted again. In assays with 6g and 7k, high rates and counts were made on Days 1, 2, 4, and 6, without a SDW rinse.
Data from the M. incognita assays were analyzed with the statistical package JMP 11.2.0 (SAS Institute, Cary, N.C., USA). Differences among numbers of hatched J2 in each treatment, and among percentage of mobile J2 per treatment (number mobile J2/total J2×100), were determined by the ANOVA, and means were compared using Tukey Kramer's adjustment for multiple comparisons (P<0.05). For percent mobile J2 on Day 2 in egg immersion Assays 1 and 2, and Day 4 with the five compounds in the J2 immersion assay, data were log10 (x+1)-transformed before analysis. Data presented are nontransformed means.

[2] = system: Meloidogyne incognita second-stage juveniles (J2); assay: M. incognita assay with previously hatched J2 immersed in test solutions; settings: in vivo
Protocol: as §1
as §2, with “The five compounds tested were 6b, 6f, 6g, 6i, and 7k, high and low rates.” left out
Each polystyrene culture plate was covered with a plastic adhesive sheet (Excel Scientific, Inc., Victorville, Calif., USA) and incubated at 25° C. […] In egg immersion assays, total numbers of hatched J2, and numbers of mobile and immobile J2, were counted after 2 and 7 days incubation in the test compounds. In the first assay with previously hatched J2, the numbers of mobile and immobile J2 were counted after 1 and 2 days incubation, the treatments removed and replaced with a SDW rinse, and 2 days later the mobile vs. immobile J2 counted again. […]
Data from the M. incognita assays were analyzed with the statistical package JMP 11.2.0 (SAS Institute, Cary, N.C., USA). Differences among numbers of hatched J2 in each treatment, and among percentage of mobile J2 per treatment (number mobile J2/total J2×100), were determined by the ANOVA, and means were compared using Tukey Kramer's adjustment for multiple comparisons (P<0.05). […]

[3] = system: larvae of ORL and PR strains of Ae. aegypti; format: in vivo; settings: larvae, 0.1 μg/μl, 24 h
Protocol: (§3) Further tests were performed on compounds 11 and 12 to determine their effect on larvae and adult mosquitoes. The compounds were tested in the standard bioassays using the Orlando (ORL), pesticide-susceptible strain and the Puerto Rico (PR), pyrethroid-resistant strain of Ae. aegypti. The ORL strain has been in continuous colony since 1952 with no pesticide exposure while the resistant PR strain was colonized from egg papers collected near San Juan, PR in June, 2012. The PR strain is available as a resistant reference strain through BEIResources/CDC. Mortality was determined in the larval assays at four different concentrations (1, 0.5, 0.25, and 0.1 μg/μl) and three concentrations for adults (6.25%, 3.125%, and 1.56%). Mortality was recorded 24 h post-application, and in all assays, a negative solvent and a positive control using permethrin were utilized; tests were done in triplicate. Assays were conducted according to published procedures as described in Wanner, J. et al. (Curr. Bioact. Compd. 2015, 11, 13).

[4] = system: adults of ORL and PR strains of Ae. aegypti; assay: Adult mosquito assay, ORL and PR strains; format: in vivo; settings: adults, 6.25%, 24 h
Protocol: as §3

[5] = 2 days, high rate (166.7 μg/ml)

COc1cc(/C=C/c2ccc(Cl)c(Cl)c2)cc(OC)c1C [Compound 6i, (E)-1,3-dimethoxy-5-(3,4-dichlorostyryl)-2-methylbenzene]
Percent mobile J2, assay 2 [1, 5]: 100.0% | Percent mobile J2, assay 2 ([1]; 2 days, low rate (83.3 μg/ml)): 71.0% | Percent mobile J2, assay 2 ([1]; 7 days, high rate (166.7 μg/ml)): 93.2% | Percent mobile J2, assay 2 ([1]; 7 days, low rate (83.3 μg/ml)): 87.7% | effect on mobility of J2 hatched from eggs immersed in solutions (in words) [1]: some suppressive effect on mobility | effect on mobility of J2 previously hatched in water and immersed directly (in words) [2]: only 6g and 7k had an effect on J2 mobility

COc1ccc(/C=C\c2cc(OC)c(C)c(OC)c2)cc1OC [Compound 7k, (Z)-1,3-dimethoxy-5-(3,4-dimethoxystyryl)-2-methylbenzene]
Percent mobile J2, assay 2 [1, 5]: 72.2% | Percent mobile J2, assay 2 ([1]; 2 days, low rate (83.3 μg/ml)): 92.5% | effect on mobility of J2 hatched from eggs immersed in solutions (in words) [1]: some suppressive effect on mobility | effect on mobility of J2 previously hatched in water and immersed directly (in words) [2]: had an effect on J2 mobility

CC1(C)C(C=C(Cl)Cl)C1C(=O)OCc1cccc(Oc2ccccc2)c1 (centres unmarked) [Permethrin, permethrin, reference compound]
Percent Mortality ([3]; ORL strain): 100% | Percent Mortality ([3]; PR strain): 93.3 ± 11.5% | Percent Mortality ([4]; ORL strain): 100% | Percent Mortality ([4]; PR strain): 85 ± 10%

Source: patent US20190059368A1, “3,5-DIMETHOXYSTILBENE ANALOGS AND USES THEREOF” (The United States of America, as represented by the …, priority 2017, published 2019)
